Measurements from PMC5845353, “The selective cathepsin K inhibitor MIV-711 attenuates joint pathology in experimental animal models of osteoarthritis” (Journal of Translational Medicine, 2018).

Experiments:
[1] = tested on: rabbits subjected to anterior cruciate ligament transection (ACLT); experiment: Rabbit ACLT study, contrast-enhanced µCT of articular cartilage; type: in vivo
Description: The animals were acquired following review and approval by the Institutional Animal Care and Use Committee (IACUC) at Numira (Salt Lake City, UT). The protocol was also reviewed and approved by the IACUC at Ibex Preclinical Research Inc. (Logan, UT). Male, New Zealand White rabbits (n = 32) were purchased from the Western Oregon Rabbit Co. (Philomath, OR). The animals were approximately 9 months old, weighed 3.7–4.5 kg at the start of the experiment and were randomized into four treatment groups based on body weight.
Pre-operative butorphanol (0.5–1.0 mg/kg, i.m.) for analgesia and glycopyrrolate (~ 0.1 mg/kg i.m.) were administered up to 15 min prior to induction. Anesthesia was induced by a mixture of ketamine (20–40 mg/kg, i.m.) and xylazine (5–10 mg/kg, i.m.), followed by placement of an endotracheal tube. General anesthesia was maintained with isoflurane. Perioperative cefazolin (40 mg/kg, i.v.) was administered, and […] (0.2 mg/kg, i.v.) was administered to reverse the effects of xylazine after endotracheal intubation was complete. A fentanyl patch (25 µg/h) was placed on a clipped area of the skin to provide post-operative analgesia. An incision of 1.5–2.5 cm was made in the skin over the medial side of the right knee under aseptic conditions. The patella was dislocated laterally and the knee placed in full flexion. The anterior cruciate ligament (ACL) was visualized and transected with an appropriate blade. In sham animals, the ACL was visualized but not transected. The joint was irrigated with sterile saline and closed. The muscle and skin were closed with suture and/or surgical glue. Butorphanol (0.5–1 mg/kg, i.m.) was administered after extubation to provide supplemental analgesia. The animals were then individually housed in stainless steel or plastic cages.
Starting 1 week after sham operation or ACLT, animals were dosed daily for 7 weeks by oral gavage with either MIV-711 (synthesized by Medivir and given as a suspension in 1% Methocel A4C in water) or vehicle (1% Methocel A4C in water) at a dose volume of 4 mL/kg. The four treatment groups (n = 7 in each group) were: (1) sham + vehicle; (2) ACLT + vehicle; (3) ACLT + MIV-711, 30 µmol/kg (low dose) and (4) ACLT + MIV-711, 100 µmol/kg (high dose).
Femora and tibias from all animals were subjected to µCT scanning without and with contrast reagent, to visualize bone and cartilage, respectively. Samples were scanned on a high-resolution, volumetric µCT scanner (μCT40, ScanCo Medical, Zurich, CH). The image data was acquired with the following parameters: 36 μm isotropic voxel resolution at 300 ms exposure time, 2000 views and 1 frame per view. Each sample was scanned twice, once for acquiring bone data and once for soft tissue data. After the bone scans, the knees were stained using hexabrix for contrast-enhanced imaging of the cartilage. The µCT-generated DICOM files were used to analyze the samples and to create volume renderings of the regions of interest (ROI). The raw data files were converted into a file format compatible with the segmentation software VHLab (Numira). VHLab was used for segmenting out the regions of interest (osteophyte, cartilage, and subchondral bone) for the femur and tibia of each sample. A region spanning 9 mm of the articulating surface of the femur and 6.5 mm of the tibia was selected for segmenting out the cartilage and subchondral bone in the anterior–posterior direction. After the segmentation process, the voxel count associated with each of the regions of interest was calculated using VHLab. The voxel count was then multiplied by the cubic voxel resolution to obtain volume measurements for the different ROI. Cartilage thickness was calculated using SCIRun (Scientific Computing and Imaging Institute, University of Utah). The distance from the bone to the outer surface of the articulating cartilage was calculated. An image was generated that translates the distances into a color map for viewing the thickness along the length of the cartilage. […]

CTX-I = experiment: Urinary CTX-I in dogs subjected to partial medial meniscectomy; type: in vivo; conditions: dog, 30 µmol/kg
Procedure: Dogs subjected to partial medial meniscectomy received either 30 µmol/kg MIV-711 (synthesized by Medivir and given as a suspension in 1% Methocel A4C; n = 15) or vehicle (1% Methocel A4C; n = 15) by orogastric gavage once daily in the morning. […] Dosing started the day before surgery and lasted through Day 28, the day before necropsy. Each dog was fasted for at least 12 h before dosing and food were returned approximately 4 h following test article administration.
Urine samples were collected from the animals 1 to 3 days before surgery and treatment (baseline sample), 4 to 7 days after the start of treatment (Day 7 sample) and 26 to 28 days after treatment (Day 28 sample). Dogs were housed in metabolic cages overnight during urine collection. […]
In rabbits, conventional CTX-I assays to assess bone resorption cannot be used due to species differences. Instead, urinary helical peptide (HP-1) concentrations were measured in rabbits using the MicroVue Helical Peptide kit (Ref: 8022) from Quidel (San Diego, CA) according to the instructions supplied by the manufacturer. In dogs, urinary levels of C-terminal telopeptide of collagen type I (CTX-I) were measured using a commercially available kit (Urine BETA CrossLaps ELISA, Ref: AC-05F1, IDS Nordic Bioscience Diagnostics A/S). […] In dogs, CTX-II levels were also measured in synovial fluid. […]

## C#C[C@@H]1CN(C(=O)[C@H](CC(C)C)NC(=O)c2ccc(-c3nc(N4CCN(C)CC4)sc3F)cc2)[C@@H]2C(=O)CO[C@H]12 [MIV-711]
[1]; Femur, high dose 100 µmol/kg
  Cartilage Thickness, Lateral: 251 ± 12 µm
  Cartilage Thickness, Medial: 306 ± 12 µm
  Cartilage Thickness, Total: 278 ± 11 µm
  Cartilage Volume, Lateral: 23.0 ± 1.1 mm^3
  Cartilage Volume, Medial: 27.2 ± 1.6 mm^3
  Cartilage Volume, Total: 50.2 ± 2.2 mm^3
[1]; Femur, low dose 30 µmol/kg
  Cartilage Thickness, Lateral: 257 ± 13 µm
  Cartilage Thickness, Medial: 310 ± 18 µm
  Cartilage Thickness, Total: 283 ± 15 µm
  Cartilage Volume, Lateral: 23.1 ± 1.1 mm^3
  Cartilage Volume, Medial: 27.5 ± 2.6 mm^3
  Cartilage Volume, Total: 50.6 ± 3.5 mm^3
[1]; Tibia, high dose 100 µmol/kg
  Cartilage Thickness, Lateral: 369 ± 24 µm
  Cartilage Thickness, Medial: 539 ± 25 µm
  Cartilage Thickness, Total: 445 ± 22 µm
  Cartilage Volume, Lateral: 21.6 ± 2.0 mm^3
  Cartilage Volume, Medial: 25.3 ± 1.2 mm^3
  Cartilage Volume, Total: 46.9 ± 3.1 mm^3
[1]; Tibia, low dose 30 µmol/kg
  Cartilage Thickness, Lateral: 349 ± 18 µm
  Cartilage Thickness, Medial: 533 ± 26 µm
  Cartilage Thickness, Total: 432 ± 20 µm
  Cartilage Volume, Lateral: 19.6 ± 1.3 mm^3
  Cartilage Volume, Medial: 24.9 ± 1.5 mm^3
  Cartilage Volume, Total: 44.5 ± 2.6 mm^3
CTX-I; Day 7, vs. baseline
  urinary CTX-I levels reduced by: 78%
CTX-I; Day 28, vs. baseline
  urinary CTX-I levels reduced by: 86%
